Experimental data reported in patent US20090304689A1, “METHODS FOR THE IDENTIFICATION OF POLYPEPTIDE ANTIGENS ASSOCIATED WITH DISORDERS INVOLVING ABERRANT CELL PROLIFERATION AND COMPOSITIONS USEFUL FOR THE TREATMENT OF SUCH DISORDERS” (priority 2001, published 2009).

Legend:
[1] = clinical trials discontinued; cited from earlier work
[2] = tested on: SK-BR3 cells; experiment: Anti-proliferative effect / cytotoxicity on SK-BR-3 breast tumor cells (crystal violet, FIG. 4); assay type: cell-based, human
Experimental: SK-BR-3 human breast carcinoma cells were from The American Type Culture Collection (Rockville, Md.). […] SK-BR-3 cells were cultured in high glucose DMEM:Ham's F-12 (50:50) supplemented with 10% heat-inactivated fetal bovine serum and 2 mM 1-glutamine (all from GIBCO/BRL, Grand Island, N.Y.).
Cells were plated at the following densities in 96-well microtiter culture plates: 2×10^4 per well for SK-BR-3; 10^4 per well for HMEC, SAEC and NHEK; and 3.5×10^4 per well for human hepatocytes (pre-plated on collagen-coated plates by In Vitro Technologies) and allowed to adhere overnight in the incubator (37° C., 5% CO2). […] After a 3 day incubation, the media were removed, the cell monolayers washed once with PBS and stained with crystal violet dye (0.5% crystal violet, 20% methanol).
For all experiments, after removal of the crystal violet dye, plates were allowed to air-dry overnight. The dye was then eluted with 0.1 M sodium citrate:ethanol (50:50), pH 4.2 and the plates read in an SLT 340 ATC plate-reader at a wavelength of 540 nm. Each treatment group consisted of 4 replicates and the data are represented as mean O.D.540+/− standard error or relative to cell proliferation as compared to untreated control cells (mean+/−s.e.).

Compound | adverse effects in clinical trials [1] | cell growth inhibition [2]
COc1cc2cc(c1Cl)N(C)C(=O)C[C@H](OC(=O)[C@H](C)N(C)C(C)=O)[C@]1(C)O[C@H]1[C@H](C)[C@@H]1C[C@@](O)(NC(=O)O1)[C@H](OC)/C=C/C=C(\C)C2 [maytansine] | peripheral neuropathy | 
RITUXAN®: control, unrelated monoclonal antibody RITUXAN® |  | did not inhibit cell growth
